In patent US20260138976A1 (Hoffmann-La Roche Inc., priority 2022, published 2026):

Test system: primary human T-cells
Assay: IL2 secretion measurements (24 h, CD3-stimulated T-cells, PBS counter screen)
Assay type: cell-based
Conditions: for Emax IL2 (% activation): CD3 condition, normalised to DMSO (neutral) and 20 μM reference compound A1 = 100%; for EC50: Homo sapiens, T-cell, CD3-stimulated primary human T-cells, IL2 secretion, fitted sigmoidal curve, read-out: Tcell IL2 CD3 EC50
Method in brief: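 Expanded primary human T-cells (100k/well) were plated on anti-CD3-coated or PBS-only plates with compound in a 5–6 point dose response (top 20 or 10 μM final, 3.333-fold, 0.2% DMSO). IL-2 in 24 h supernatants was quantified by ProQuantum immunoassay or ELISA. Values were normalized to DMSO and 20 μM reference compound A1 (100%), giving EC50 and Emax.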

| SMILES | Emax IL2 (% activation) | EC50 [nM] |
| --- | --- | --- |
| CC(F)(F)c1ccc(-c2ccc(CN3C(=O)[C@@H](N)CS(=O)(=O)c4ccc(-c5nnc(C(C)(C)C#N)o5)cc43)cc2)nc1 [Example 109, 2-[5-[(3R)-3-amino-5-[[4-[5-(1,1-difluoroethyl)-2-pyridyl]phenyl]methyl]-1,1,4-trioxo-2,3-dihydro-1λ^6,5-benzothiazepin-7-yl]-1,3,4-oxadiazol-2-yl]-2-methyl-propanenitrile] | 360 | 3400 |
| COc1ccc(-c2ccc(CN3C(=O)[C@@H](N)CS(=O)(=O)c4cc(F)c(-c5noc(C6(N)COC6)n5)cc43)cc2)cc1 [Example 8, (3R)-3-amino-7-[5-(3-aminooxetan-3-yl)-1,2,4-oxadiazol-3-yl]-8-fluoro-5-[[4-(4-methoxyphenyl)phenyl]methyl]-1,1-dioxo-2,3-dihydro-1λ^6,5-benzothiazepin-4-one] | 96 | 5600 |
| CC(C)(C#N)c1nnc(-c2ccc3c(c2)N(Cc2ccc(-c4cnc(OC(F)(F)F)cn4)cc2)C(=O)[C@@H](N)CS3(=O)=O)o1 [Example 112] | 139 | 832 |
| N#CC1(c2nc(-c3cc4c(cc3F)S(=O)(=O)C[C@H](N)C(=O)N4Cc3ccc(-c4ccc(C(F)(F)F)cn4)cc3)no2)CC1 [Example 17] | 221 | 1540 |
| CC(C)(C#N)c1nnc(-c2ccc3c(c2)N(Cc2ccc(-c4cc(OC(F)F)ccn4)cc2)C(=O)[C@@H](N)CS3(=O)=O)o1 [Example 110, 2-[5-[(3R)-3-amino-5-[[4-[4-(difluoromethoxy)-2-pyridyl]phenyl]methyl]-1,1,4-trioxo-2,3-dihydro-1λ^6,5-benzothiazepin-7-yl]-1,3,4-oxadiazol-2-yl]-2-methyl-propanenitrile] | 85 | 4110 |
| CC(C)(C#N)c1nnc(-c2ccc3c(c2)N(Cc2ccc(-c4cc(C(F)(F)F)ccn4)cc2)C(=O)[C@@H](N)CS3(=O)=O)o1 [Example 116, 2-[5-[(3R)-3-amino-1,1,4-trioxo-5-[[4-[4-(trifluoromethyl)-2-pyridyl]phenyl]methyl]-2,3-dihydro-1λ^6,5-benzothiazepin-7-yl]-1,3,4-oxadiazol-2-yl]-2-methyl-propanenitrile] | 87 | 1030 |
| N#CC1(c2nnc(-c3ccc4c(c3)N(Cc3ccc(-c5ccc(C(F)(F)F)cn5)cc3)C(=O)[C@@H](N)CS4(=O)=O)o2)CC1 [Example 62, 1-[5-[(3R)-3-amino-1,1,4-trioxo-5-[[4-[5-(trifluoromethyl)-2-pyridyl]phenyl]methyl]-2,3-dihydro-1λ^6,5-benzothiazepin-7-yl]-1,3,4-oxadiazol-2-yl]cyclopropane-carbonitrile] | 110 | 2110 |
| N[C@H]1CS(=O)(=O)c2ccc(-c3nnc(N4CCC(F)(F)CC4)o3)cc2N(Cc2ccc(-c3ccc(C(F)(F)F)cn3)cc2)C1=O [Example 160] | 55 | 6430 |
| CC(C)(C#N)c1nnc(-c2ccc3c(c2)N(Cc2ccc(-c4ccc(OC(F)F)cn4)cc2)C(=O)[C@@H](N)CS3(=O)=O)o1 [Example 108, 2-[5-[(3R)-3-amino-5-[[4-[5-(difluoromethoxy)-2-pyridyl]phenyl]methyl]-1,1,4-trioxo-2,3-dihydro-1λ^6,5-benzothiazepin-7-yl]-1,3,4-oxadiazol-2-yl]-2-methyl-propanenitrile] | 245 | 1560 |
| N[C@H]1CS(=O)(=O)c2ccc(-c3nnc(C(F)C(F)(F)F)o3)cc2N(Cc2ccc(-c3noc(C4CC4)n3)cc2)C1=O (stereo partly drawn) [Example 168, (3R)-3-amino-5-[[4-(5-cyclopropyl-1,2,4-oxadiazol-3-yl)phenyl]methyl]-1,1-dioxo-7-[5-(1,2,2,2-tetrafluoroethyl)-1,3,4-oxadiazol-2-yl]-2,3-dihydro-1λ^6,5-benzothiazepin-4-one] | 67 | 4870 |
